Experiments:
PC3 (prostate) = test: In vitro cytotoxic activity MTT assay, PC3; assay type: cell-based; conditions: Homo sapiens, Prostate cell; PC3 (prostate) cells, exposed for 96 hours; read-out: Cytotoxicity activity IC50 (50% inhibition of cell proliferation)
Method: (§1) Compounds 1-16 were screened for their in vitro cytotoxic activity utilizing a 3-(4,5-dimethyl-thiazol-2-yl)-2,5-diphenyltetrazolium bromide (MTT) assay against selected cancer human cell lines consisting of PC3 (prostate), HCT116 (colon), A375 (melanoma), H1299 (lung), MIAPaCa-2 (pancreas), HL60 (leukemia), MCF7 (breast), MDA-MB-231 (breast) (T. Mosmann, J. Immunol. Meth., 1983, 65, 55-63). The cells were cultured at 37° C. in RMPI1640 medium supplemented with 10% fetal bovine serum, 50 IU/mL penicillin, and 50 µg/mL streptomycin in a 5% CO2 incubator. All cells were sub-cultured 3 times/week by trypsinisation. Viable cells were seeded and allowed to adhere for 12 hours before a test drug was added in 96-well plates at an initial density of 1.0×10^5 cells/mL. Tumor cell lines were separately exposed to various concentrations of the tested compounds followed by incubation at a temperature of 37° C. during 96 hours inside a medium of fresh RMPI 1640. Cells were subsequently incubated at 37° C. using MTT at 0.5 mg/mL during 4 hours. After removal of supernatant, formazan crystals were dissolved in isopropanol and the optical density was measured at 570 nm. CX-4945 was used as a positive control.

HCT116 (colon) = test: In vitro cytotoxic activity MTT assay, HCT116; assay type: cell-based; conditions: Homo sapiens, HCT-116; HCT116 (colon) cells, exposed for 96 hours; read-out: Cytotoxicity activity IC50 (50% inhibition of cell proliferation)
Method: as §1

A375 (melanoma) = test: In vitro cytotoxic activity MTT assay, A375; assay type: cell-based; conditions: Homo sapiens, A-375; A375 (melanoma) cells, exposed for 96 hours; read-out: Cytotoxicity activity IC50 (50% inhibition of cell proliferation)
Method: as §1

H1299 (lung) = test: In vitro cytotoxic activity MTT assay, H1299; assay type: cell-based; conditions: Homo sapiens, NCI-H1299; H1299 (lung) cells, exposed for 96 hours; read-out: Cytotoxicity activity IC50 (50% inhibition of cell proliferation)
Method: as §1

MIAPaCa-2 (pancreas) = test: In vitro cytotoxic activity MTT assay, MIAPaCa-2; assay type: cell-based; conditions: Homo sapiens, MIA PaCa-2; MIAPaCa-2 (pancreas) cells, exposed for 96 hours; read-out: Cytotoxicity activity IC50 (50% inhibition of cell proliferation)
Method: as §1

HL60 (leukemia) = test: In vitro cytotoxic activity MTT assay, HL60; assay type: cell-based; conditions: Homo sapiens, HL-60; HL60 (leukemia) cells, exposed for 96 hours; read-out: Cytotoxicity activity IC50 (50% inhibition of cell proliferation)
Method: as §1

MCF7 (breast) = test: In vitro cytotoxic activity MTT assay, MCF7; assay type: cell-based; conditions: Homo sapiens; MCF7 (breast) cells, exposed for 96 hours; read-out: Cytotoxicity activity IC50 (50% inhibition of cell proliferation)
Method: as §1

MDA-MB-231 (breast) = test: In vitro cytotoxic activity MTT assay, MDA-MB-231; assay type: cell-based; conditions: Homo sapiens; MDA-MB-231 (breast) cells, exposed for 96 hours; read-out: Cytotoxicity activity IC50 (50% inhibition of cell proliferation)
Method: as §1

[1] = target: T1, recombinant human CK2 (RRββ-holoenzyme) (Homo sapiens, UniProt P68400); test: CK2 Kinase Assay (33P-ATP, substrate peptide RRRDDDSDDD); assay type: biochemical; conditions: final ATP concentration 15 μM, 10 minutes at 30° C.; read-out: protein kinase CK2 IC50
T1 construct: purchased Millipore
T1 sequence (P68400 whole entry): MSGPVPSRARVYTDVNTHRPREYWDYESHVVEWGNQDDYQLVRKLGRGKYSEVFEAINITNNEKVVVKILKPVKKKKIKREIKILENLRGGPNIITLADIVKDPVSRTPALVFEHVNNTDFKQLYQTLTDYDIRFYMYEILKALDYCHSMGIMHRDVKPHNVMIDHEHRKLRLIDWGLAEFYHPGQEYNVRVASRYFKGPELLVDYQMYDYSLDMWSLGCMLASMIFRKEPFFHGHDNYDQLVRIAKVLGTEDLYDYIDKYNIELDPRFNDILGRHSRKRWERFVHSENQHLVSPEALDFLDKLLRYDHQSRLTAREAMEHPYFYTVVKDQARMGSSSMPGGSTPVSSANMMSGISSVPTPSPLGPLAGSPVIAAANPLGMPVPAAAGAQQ
T1 sequence (P67870 whole entry partner): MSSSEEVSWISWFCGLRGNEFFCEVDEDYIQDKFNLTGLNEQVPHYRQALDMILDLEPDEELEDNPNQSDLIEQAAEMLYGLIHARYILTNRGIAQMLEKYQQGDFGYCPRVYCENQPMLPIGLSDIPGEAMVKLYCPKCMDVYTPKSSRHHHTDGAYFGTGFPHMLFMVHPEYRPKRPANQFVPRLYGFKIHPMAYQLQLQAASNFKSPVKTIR
Method: CK2 Kinase Assay was conducted using the protocol as described in Pierre F. et al; J. Med. Chem. 2011, 54, 635-654. The tested compounds in aqueous solution were added at a volume of 10 μL to a reaction mixture comprising 10 μL of assay dilution buffer (ADB; 20 mM MOPS, pH 7.2, 25 mM β-glycerol phosphate, 5 mM EGTA, 1 mM sodium orthovanadate, and 1 mM dithiothreitol), 10 μL of substrate peptide (RRRDDDSDDD, dissolved in ADB at a concentration of 1 mM), 10 μL of recombinant human CK2 (RRββ-holoenzyme, 25 ng dissolved in ADB; Millipore). Reactions were initiated by the addition of 10 μL of ATP solution (90% 75 mMMgCl2, 75 μM ATP (final ATP concentration:15 μM) dissolved in ADB; 10% [γ-33P] ATP (stock 1 mCi/100 μL; 3000 Ci/mmol (Perkin-Elmer) and maintained for 10 minutes at 30° C. The reactions were quenched with 100 μL of 0.75% phosphoric acid and then transferred to and filtered through a phosphor cellulose filter plate (Millipore). After washing each well five times with 0.75% phosphoric acid, the plate was dried under vacuum for 5 min and, following the addition of 15 μL of scintillation fluid to each well, the residual radioactivity was measured using a Wallac […]. The IC50 values were derived from eight concentrations of test inhibitors.

Work on `Clc1cccc(Nc2nc3ccncc3c3nn4ccncc4c23)c1` [Compound 1, N-(3-chlorophenyl)pyrazino[1′,2′:1,5]pyrazolo[4,3-c][1,6]naphthyridin-6-amine] yielded an IC50 (PC3 (prostate)) of 1.3 µM, an IC50 (HCT116 (colon)) of 1.8 µM and an IC50 (A375 (melanoma)) of 3.7 µM. It also gave an IC50 (H1299 (lung)) of 1.5 µM, an IC50 (MIAPaCa-2 (pancreas)) of 1.2 µM and an IC50 (HL60 (leukemia)) of 4.4 µM. It also gave an IC50 (MCF7 (breast)) of 5.7 µM, an IC50 (MDA-MB-231 (breast)) of 4.6 µM and an IC50 [1] of 0.038 µM.
